Assays:
HT29 cells = assay: Combination study with standard chemotherapy agents, Combination Index (Chou and Talalay); assay type: cell-based, human; details: preliminary results
Method: Anticancer drugs were tested around their EC50 in […] cell line, The general assay procedure is the same as described in example 53 for compound XIX-3. Loewe additivity model: The experimental data are analyzed by using CalcuSyn (Biosoft, Stapleford, UK), a computer program based on the method of Chou and Talalay. Briefly, the dose-effect curves for each drug or drug combination were converted to median-effect plots with CalcuSyn. Then, a combination index (CI) value for each experimental combination was calculated on the basis of the following equation: [formula] Where for n=2 (combination of 2 compounds): D1 and D2 are the doses of drug 1 and drug 2 that have x effect when each drug is used alone d1 and d2 are the doses of drug 1 and drug 2 that have the same x effect when they are used in combination. [table] [table]

Colo205 = assay: EC50 determination in cancer cell lines; assay type: cell-based; details: Homo sapiens, COLO 205, 72 h, * n>2
Procedure, shortened: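 Treatment lasts 72 h at a fixed vehicle content of DMSO or H2O. The readout is MTS for adherent cells and SRB for suspension cells. Each EC50 is the concentration halving absorbance relative to vehicle.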

MOLM-14 cell line = assay: Combination of XXIV-3 and Cytarabine, Bliss independence model; assay type: cell-based, human; details: XXIV-3 associated with Cytarabine, 72 h
Method: The human leukemia cell line MOLM-14 was cultured in Minimum Essential Medium Alpha Medium (MEM) supplemented with 10% Fetal Bovine Serum (FBS) and 1% Penicillin-Streptomycin and maintained at 37° C. with 5% CO2. 30,000 cells in 180 μL of MEM 5% FBS 1% P/S were plated onto 96-well plates immediately before the assay. Compounds were added at different concentrations (combinations of five concentrations of XXIV-3 and six concentrations of Cytarabine) to each well, and cell cultures were incubated for 72 h. Vehicle (H2O) was used as a control, and all compounds were tested in a constant percentage of vehicle. Cell outgrowth was measured using the CellTiter-Glo luminescent cell viability assay as described by the manufacturer (Promega, Ref G7571 Madison, Wis., USA) using an Infinite F200 Pro TECAN plate reader. […]
The effects of drug-drug combinations are evaluated in the Bliss independence model (Prichard M. N. and Shipman C. Jr. Antivir. Res. 1990 (14) 181-205; Prichard, M. L. et al. Antimicrob Agents Chemother 1993(37) 540-545). The theoretical additive effect is calculated from the dose-response curves of individual compounds by the equation: Z=X+Y(1−X) (7) Where: • Z represents the total inhibition produced by the combination of drugs X and Y. • X and Y represent the inhibition produced by drugs X and Y alone, respectively. […]

| Structure (SMILES) | Combination effect with standard chemotherapy agents (HT29 cells; HT29 cells) | Combination Index (CI) (HT29 cells; XIX-3 at 18 μM in combination with well described anticancer drugs, HT-29) | EC50 (Colo205) | Combination effect on cell viability (Bliss independence model) (MOLM-14 cell line) |
| --- | --- | --- | --- | --- |
| CCN(CC)C1CCN(C(C)c2cc(-c3ccccc3)nc3ccccc23)CC1.Cl.Cl (centres unmarked) [XIX-3, 2-phenyl-4-{1-[4-(N,N-diethylamino)piperidin-1-yl]-eth-1-yl}quinoline dihydrochloride] | Synergy Effect | < 1 | – | – |
| CCN(CC)C1CCN(C(C)c2cc(-c3ccc4ccccc4c3)nc3ccccc23)CC1.Cl.Cl (centres unmarked) [XXIV-3, 2-(2-naphtyl)-4-{1-[4-(N,N-diethylamino)-piperidin-1-yl]-eth-1-yl}quinoline dihydrochloride] | – | – | 5 µM | additive effect (between −20% to +20% indicates additive effect) |
| Cc1ccc(-c2cc(N3CCC(NC(C)(C)C)CC3)c3ccccc3n2)cc1.Cl.Cl [XIII-8, 2-(4-methyl-phenyl)-4-(4-N-tert-butylamino-piperidin-1-yl)quinoline dihydrochloride] | – | – | 8 µM | – |

— patent publication US10179770B2, “Quinolines derivatives as novel anticancer agents” (GENOSCIENCE PHARMA, priority 2013, dated 2019)
